Molecules are shown by their SMILES.

The first series concerns PC-12. The series is described as follows: Nitric oxide radical scavenging activity in PC12 cells by survival assay. The series is classed as functional, cell-based, Homo sapiens. As to conditions: Rattus norvegicus, read-out: EC50.
The EC50 is the midpoint of the concentration-response curve. For `CC1(C)N([O])C(c2ccc(O)cc2)=[N+]([O-])C1(C)C`, the EC50 worked out at 39.8 µM.
On the same count and under the same terms, then `COc1cc(C2=[N+]([O-])C(C)(C)C(C)(C)N2[O])ccc1O`, with 25.7 µM; and `CC1(C)N([O])C(c2ccc([N+](=O)[O-])cc2)=[N+]([O-])C1(C)C`, with 115 µM.
With `COc1ccc(C2=[N+]([O-])C(C)(C)C(C)(C)N2[O])cc1OC`, the EC50 was determined as 8.32 µM.
In the case of `CC1(C)N([O])C(c2ccc3c(c2)OCO3)=[N+]([O-])C1(C)C`, the EC50 was found to be 19.5 µM.
On to `CC1(C)N([O])C(c2ccc(Br)cc2)=[N+]([O-])C1(C)C`, for which the EC50 is 46.8 µM.
As to `CC1(C)N([O])C(c2cccc([N+](=O)[O-])c2)=[N+]([O-])C1(C)C`, the EC50 stood at 87.1 µM.
Take `CC1(C)N([O])C(c2cccc(O)c2)=[N+]([O-])C1(C)C`: the EC50 was found to be 61.7 µM.
Turning to `CC1(C)N([O])C(c2ccccc2)=[N+]([O-])C1(C)C`, the EC50 stood at 67.6 µM.

The same series, now with this note: Rattus norvegicus, read-out: Log EC50 (converted).
Consider `CC1(C)N([O])C(c2ccc(O)cc2)=[N+]([O-])C1(C)C`, for which the EC50 was 39.8 µM.
For the compound `COc1cc(C2=[N+]([O-])C(C)(C)C(C)(C)N2[O])ccc1O`, the EC50 is 25.7 µM.
On to `CC1(C)N([O])C(c2ccc([N+](=O)[O-])cc2)=[N+]([O-])C1(C)C`, for which the EC50 was 115 µM.
Take `COc1ccc(C2=[N+]([O-])C(C)(C)C(C)(C)N2[O])cc1OC`: the EC50 was 8.32 µM.
Same read-out and setting: the same measure for `CC1(C)N([O])C(c2ccc3c(c2)OCO3)=[N+]([O-])C1(C)C`: 19.5 µM; for `CC1(C)N([O])C(c2ccc(Br)cc2)=[N+]([O-])C1(C)C`: 46.8 µM; for `CC1(C)N([O])C(c2cccc([N+](=O)[O-])c2)=[N+]([O-])C1(C)C`: 87.1 µM.
In the case of `CC1(C)N([O])C(c2cccc(O)c2)=[N+]([O-])C1(C)C`, the EC50 was 61.7 µM.
For `CC1(C)N([O])C(c2ccccc2)=[N+]([O-])C1(C)C`, the EC50 was 67.6 µM.

The subject of a further series is PC-12. Put plainly: Hydrogen peroxide radical scavenging activity in PC12 cell by survival assay. The conditions noted are these: Rattus norvegicus, read-out: EC50. The series is classed as functional, cell-based, Homo sapiens.
`CC1(C)N([O])C(c2ccc(O)cc2)=[N+]([O-])C1(C)C`: the EC50 turned out to be 48.2 µM.
`COc1cc(C2=[N+]([O-])C(C)(C)C(C)(C)N2[O])ccc1O`: the EC50 is 32.6 µM.
Turning to `CC1(C)N([O])C(c2ccc([N+](=O)[O-])cc2)=[N+]([O-])C1(C)C`, the concentration for a half-maximal effect (EC50) is 108 µM.
With `COc1ccc(C2=[N+]([O-])C(C)(C)C(C)(C)N2[O])cc1OC`, the EC50 was 30.4 µM.
Turning to `CC1(C)N([O])C(c2ccc3c(c2)OCO3)=[N+]([O-])C1(C)C`, the EC50 turned out to be 29.7 µM.
As for `CC1(C)N([O])C(c2ccc(Br)cc2)=[N+]([O-])C1(C)C`, the EC50 stood at 55.3 µM.
Consider `CC1(C)N([O])C(c2cccc([N+](=O)[O-])c2)=[N+]([O-])C1(C)C`, for which the EC50 came to 62.1 µM.
Turning to `CC1(C)N([O])C(c2cccc(O)c2)=[N+]([O-])C1(C)C`, the EC50 was 57.9 µM.
The same measure, in the same setting: then `CC1(C)N([O])C(c2ccccc2)=[N+]([O-])C1(C)C`, with 51.6 µM.

The same series, now with this note: Rattus norvegicus, read-out: Log EC50 (converted).
Take `CC1(C)N([O])C(c2ccc(O)cc2)=[N+]([O-])C1(C)C`: the EC50 was 47.9 µM.
On to `COc1cc(C2=[N+]([O-])C(C)(C)C(C)(C)N2[O])ccc1O`, for which the EC50 is 32.4 µM.
The same measure, in the same setting: the same measure for `CC1(C)N([O])C(c2ccc([N+](=O)[O-])cc2)=[N+]([O-])C1(C)C`: 107 µM; for `COc1ccc(C2=[N+]([O-])C(C)(C)C(C)(C)N2[O])cc1OC`: 30.2 µM.
In the case of `CC1(C)N([O])C(c2ccc3c(c2)OCO3)=[N+]([O-])C1(C)C`, the EC50 was 29.5 µM.
Consider `CC1(C)N([O])C(c2ccc(Br)cc2)=[N+]([O-])C1(C)C`, for which the EC50 was 55 µM.
Consider `CC1(C)N([O])C(c2cccc([N+](=O)[O-])c2)=[N+]([O-])C1(C)C`, for which the EC50 is 61.7 µM.
Still for that read-out and setting: then `CC1(C)N([O])C(c2cccc(O)c2)=[N+]([O-])C1(C)C`, with 57.5 µM.
As for `CC1(C)N([O])C(c2ccccc2)=[N+]([O-])C1(C)C`, the EC50 is 51.3 µM.

For a further series, the system named is PC-12. Put plainly: Hydroxyl radical scavenging activity in PC12 cell by survival assay. The series is classed as functional, cell-based, Homo sapiens. As to conditions: Rattus norvegicus, read-out: EC50.
As for `CC1(C)N([O])C(c2ccc(O)cc2)=[N+]([O-])C1(C)C`, the EC50 was 56 µM.
`COc1cc(C2=[N+]([O-])C(C)(C)C(C)(C)N2[O])ccc1O`: the EC50 is 42.9 µM.
As to `CC1(C)N([O])C(c2ccc([N+](=O)[O-])cc2)=[N+]([O-])C1(C)C`, the EC50 came to 167 µM.
As to `COc1ccc(C2=[N+]([O-])C(C)(C)C(C)(C)N2[O])cc1OC`, the EC50 was found to be 29.7 µM.
On to `CC1(C)N([O])C(c2ccc3c(c2)OCO3)=[N+]([O-])C1(C)C`, for which the EC50 came out at 47.1 µM.
On to `CC1(C)N([O])C(c2ccc(Br)cc2)=[N+]([O-])C1(C)C`, for which the EC50 was 60.7 µM.
For `CC1(C)N([O])C(c2cccc([N+](=O)[O-])c2)=[N+]([O-])C1(C)C`, the EC50 amounted to 63.5 µM.
Take `CC1(C)N([O])C(c2cccc(O)c2)=[N+]([O-])C1(C)C`: the EC50 turned out to be 69.6 µM.
The same measure, in the same setting: the same measure for `CC1(C)N([O])C(c2ccccc2)=[N+]([O-])C1(C)C`: 66.5 µM.

The same series, now with this note: Rattus norvegicus, read-out: Log EC50 (converted).
Consider `CC1(C)N([O])C(c2ccc(O)cc2)=[N+]([O-])C1(C)C`, for which the EC50 was 56.2 µM.
On the same count and under the same terms, then `COc1cc(C2=[N+]([O-])C(C)(C)C(C)(C)N2[O])ccc1O`, with 42.7 µM; and `CC1(C)N([O])C(c2ccc([N+](=O)[O-])cc2)=[N+]([O-])C1(C)C`, with 166 µM; and `COc1ccc(C2=[N+]([O-])C(C)(C)C(C)(C)N2[O])cc1OC`, with 29.5 µM.
Consider `CC1(C)N([O])C(c2ccc3c(c2)OCO3)=[N+]([O-])C1(C)C`, for which the EC50 is 46.8 µM.
Take `CC1(C)N([O])C(c2ccc(Br)cc2)=[N+]([O-])C1(C)C`: the EC50 is 60.3 µM.
For the compound `CC1(C)N([O])C(c2cccc([N+](=O)[O-])c2)=[N+]([O-])C1(C)C`, the EC50 is 63.1 µM.
As for `CC1(C)N([O])C(c2cccc(O)c2)=[N+]([O-])C1(C)C`, the concentration giving a half-maximal response (EC50) was 69.2 µM.
On to `CC1(C)N([O])C(c2ccccc2)=[N+]([O-])C1(C)C`, for which the EC50 was 66.1 µM.

Tested on in a further series: not listed separately
Put plainly: Partition coefficient, log P of the compound. Format: physicochemical. As to conditions: octanol/water.
As a reminder, the logP is the decadic logarithm of the partition coefficient of the neutral form, usually between octanol and water. `CC1(C)N([O])C(c2cccnc2)=[N+]([O-])C1(C)C` returned a logP of 0.512.
The compound `CC1(C)N([O])C(c2ccc(O)cc2)=[N+]([O-])C1(C)C` gave a logP of 0.619.
`COc1cc(C2=[N+]([O-])C(C)(C)C(C)(C)N2[O])ccc1O`: the logP came out at 1.14.
Still for that read-out and setting: the same measure for `CC1(C)N([O])C(c2ccc([N+](=O)[O-])cc2)=[N+]([O-])C1(C)C`: 1.68.
Consider `COc1ccc(C2=[N+]([O-])C(C)(C)C(C)(C)N2[O])cc1OC`, for which the logP amounted to 1.15.
For `CC1(C)N([O])C(c2ccc3c(c2)OCO3)=[N+]([O-])C1(C)C`, the logP amounted to 1.51.
The compound `CC1(C)N([O])C(c2ccc(Br)cc2)=[N+]([O-])C1(C)C` yielded a logP of 2.46.
`CC1(C)N([O])C(c2cccc([N+](=O)[O-])c2)=[N+]([O-])C1(C)C` came in with a logP of 1.64.
In the case of `CC1(C)N([O])C(c2cccc(O)c2)=[N+]([O-])C1(C)C`, the logP was 1.14.
Regarding `CC1(C)N([O])C(c2ccco2)=[N+]([O-])C1(C)C`, the logP was determined as 0.615.
On the same count and under the same terms, then `CC1(C)N([O])C(c2ccccc2)=[N+]([O-])C1(C)C`, with 1.36.

Tested on in a further series: not listed separately
Put plainly: Retention time, log K of the compound.
Conditions: not given
The series is classed as ADME.
For `CC1(C)N([O])C(c2cccnc2)=[N+]([O-])C1(C)C`, the “log K” value turned out to be 0.337.
For `CC1(C)N([O])C(c2ccc(O)cc2)=[N+]([O-])C1(C)C`, the “log K” value is 0.483.
As for `COc1cc(C2=[N+]([O-])C(C)(C)C(C)(C)N2[O])ccc1O`, the “log K” value came out at 0.558.
`CC1(C)N([O])C(c2ccc([N+](=O)[O-])cc2)=[N+]([O-])C1(C)C`: the “log K” value worked out at 1.245.
With `COc1ccc(C2=[N+]([O-])C(C)(C)C(C)(C)N2[O])cc1OC`, the “log K” value is listed as 0.905.
Still for that read-out and setting: the same measure for `CC1(C)N([O])C(c2ccc3c(c2)OCO3)=[N+]([O-])C1(C)C`: 1.039; for `CC1(C)N([O])C(c2ccc(Br)cc2)=[N+]([O-])C1(C)C`: 1.713.
Same read-out and setting: the same measure for `CC1(C)N([O])C(c2cccc([N+](=O)[O-])c2)=[N+]([O-])C1(C)C`: 1.157.
On the same count and under the same terms, the same measure for `CC1(C)N([O])C(c2cccc(O)c2)=[N+]([O-])C1(C)C`: 0.546.
As for `CC1(C)N([O])C(c2ccco2)=[N+]([O-])C1(C)C`, the “log K” value was found to be 0.405.
Regarding `CC1(C)N([O])C(c2ccccc2)=[N+]([O-])C1(C)C`, the “log K” value came to 0.918.

These data come from ChEMBL document CHEMBL1147197, “Studies on logP, retention time and QSAR of 2-substituted phenylnitronyl nitroxides as free radical scavengers” (Eur J Med Chem, 2007).
